pIC50: −log10 of the molar value. Converted amounts (≈) assume the structure as drawn. Read-outs that look alike come from different tables or passages of the source. Where a SMILES comes first, the peptide text is derived from it. [ ]: non-standard residue; d: D form. The star is where a group is joined. Levofloxacinoyl = C[C@H]1COc2c(N3CCN(C)CC3)c(F)cc3c(=O)c(C(=O)*)cn1c23; βAla = NCCC(=O)O
How the values were obtained:
B. subtilis (ATCC 23857) = experiment: Antibacterial broth microdilution MIC assay; type: cell-based, Bacillus subtilis; conditions: >99% inhibition of growth, MH broth, 20-22 h, 37 °C
Description: (§1) The antibacterial activity of peptide analogs was tested against different bacterial strains, i.e., Salmonella enterica subsp. enterica serotype Typhimurium or Salmonella typhi (ATCC 14028), Staphylococcus aureus (NCTC 13277), Bacillus subtilis (ATCC 23857), Escherichia coli (ATCC 25922), and Pseudomonas aeruginosa (ATCC 10145). These strains were obtained from the microbial bank of Dr. Panjwani Center for Molecular Medicine and Drug research (PCMD), International Center for Chemical and Biological Sciences (ICCBS), University of Karachi. Colonies of these bacterial strains were grown in respective agar media, then inoculated in Mueller Hinton (MH) broth (Oxoid, UK) and incubated at 37 °C overnight. The peptide solutions were first diluted 1 in 100 (from the stock solution at 20 mM) and then further two-fold dilution in MH broth in a sterile 96-well plate was performed, resulting in 100 µL of broth containing increasing concentrations of analogs. Bacteria in their exponential growth phase were diluted in MH broth, and 100 µL of this suspension was added in each well. […] Then, these plates were incubated at 37 °C for 20–22 h. MIC (Minimum Inhibitory Concentration) values were determined as the concentrations of peptides causing >99% inhibition of bacterial growth.

E. coli (ATCC 25922) = experiment: Antibacterial broth microdilution MIC assay; type: cell-based, Escherichia coli; conditions: >99% inhibition of growth, MH broth, 20-22 h, 37 °C
Description: as §1

[1] = system: P. aeruginosa (ATCC 10145); experiment: Antibacterial broth microdilution MIC assay; type: cell-based, Pseudomonas aeruginosa; conditions: >99% inhibition of growth, MH broth, 20-22 h, 37 °C
Description: as §1

C. albicans (ATCC 36082) = experiment: microbe, parasite or virus in culture
Description: Candida albicans (ATCC 36082) was cultured on Sabourad Dextrose Agar (SDA). A single colony was inoculated in Sabouraud Dextrose Broth (SDB) medium and grown overnight at 37 °C while shaking. The next day, the susceptibility of C. albicans was tested using a broth microdilution assay. Peptide analogs were diluted in SDB media by two-fold dilution, resulting in 100 µL of medium containing increasing concentrations of analogs. The overnight culture (turbidity at OD600 = 1) was 1000× diluted in SDB. Then 100 µL of this suspension was added to each well, resulting in a final 200 µL suspension containing 2–4 × 10^5 CFU/mL. The plate was incubated at 37 °C for 24 h. The next day, MIC (Minimum Inhibitory Concentration) values were determined as the concentrations of peptides causing > 99% inhibition of yeast growth.

[2] = system: Human breast cancer (MCF-7) cells; experiment: cells; type: cell-based
Description: (§2) Human breast cancer (MCF-7) and human cervical cancer (HeLa) cells were obtained from the cell culture bank of PCMD in ICCBS, University of Karachi. These cells were maintained in Dulbecco’s Modified Eagle Medium (DMEM), supplemented with 10% fetal bovine serum, and incubated at 37 °C and 5% CO2. The antiproliferative activity of the samples was determined by a MTT assay. Briefly, the cells were washed with PBS and trypsinized. After determination of the cell number using Malassez cell counting, 100 µL of the cell suspension were seeded in a 96-well plate at the density of 6000 cells/well and incubated at 37 °C and 5% CO2. After 24 h, the cells were treated with increasing concentrations of analogs. The next day, media was removed and 200 µL of MTT dye (0.5 mg/mL) was added in each well and incubated for 3 h at 37 °C in 5% CO2 incubator. Then, the media was removed and 100 µL of DMSO was added to solubilize formazan crystals. After one minute of shaking, the absorbance was recorded at 540 nm in microplate reader (Multiskan GO, ThermoScientific, Waltham, MA, USA). Finally, the percent inhibition of proliferation was calculated using the following formula: % inhibition of proliferation=O.D of treated well−O.D of media control/O.D of untreated control−O.D of media control×100

[3] = system: human cervical cancer (HeLa) cells; experiment: cells; type: cell-based; conditions: 24 h
Description: as §2

[4] = system: human red blood cells (RBC); experiment: Hemolytic assay; type: cell-based
Description: For the hemolytic assay, fresh human blood (2 mL) was obtained from a healthy donor in EDTA tube while following the protocol of approval from the Independent Ethics Committee of ICCBS (approval number ICCBS/IEC-047-HB-2019/Protocol/1.0). The blood was centrifuged and upper supernatant plasma was removed. The cell pellets were washed with sterile PBS three times. The washed blood cells were then diluted 25 times to make 4% concentration of the initial blood cells. Red blood cells (500 µL) were treated with increasing concentrations of analogs, with triton X-100 at 0.1% being used as positive control giving 100% hemolysis. After 1 h of incubation at 37 °C, tubes were centrifuged at 800 rpm for 5 min to pellet down red blood cells. After centrifugation, 200 µL of supernatant were transferred into a 96 well plate and the absorbance was recorded at 576 nm using a microplate reader (MultiSkan Go, ThermoScientific). Then, the following formula was applied to calculate percent hemolysis: % Hemolysis=O.D of test sample−O.D of PBS control/O.D of Tritox×positive control−O.D of PBS control×100

[5] = system: cancer cells (MCF-7, HeLa); set-up: species or system human
Description: The selectivity of action of the analogs against micro-organisms or cancer cells was further evaluated through calculation of their selectivity indexes (SIs). SIs were determined using either the MIC on micro-organisms or IC50 on cancer cells compared to HC50 values, and they are reported in Table 6.

S. aureus (NCTC 13277) = conditions: >99% inhibition of growth, MH broth, 20-22 h, 37 °C
[6] = Circular dichroism secondary structure analysis (Bestsel) in 20 mM SDS; type: physicochemical; conditions: CD, 15 µM peptide in 20 mM SDS, 22 °C
Description: The far-ultraviolet circular dichroism (CD) spectra were recorded using a JASCO J-810 spectropolarimeter (Jasco, Tokyo, Japan), with measurements taken in a quartz cuvette with a 10 mm path length. The temperature was kept at 22 °C, and the instrument was calibrated with D-(+)-10-camphorsulfonic acid. Peptides were dissolved in 20 mM SDS to a final concentration of 15 µM. The CD spectra were collected over a wavelength range of 190 to 260 nm with a bandwidth of 2 nm. Each spectrum was recorded with ten consecutive scans at a rate of 50 nm/min, and the baseline was obtained under identical conditions. Secondary structures, i.e., the percentage of alpha-helix and other secondary structures, were quantified from CD data using Bestsel software (https://bestsel.elte.hu/index.php, accessed on 22 October 2024).

[7] = >99% inhibition of yeast growth, SDB, 24 h, 37 °C
[8] = MTT, 24 h exposure, read-out: IC50 on Breast Cancer (MCF-7)
[9] = >99% inhibition of growth, MH broth, 20-22 h, 37 °C

Compound | MIC (B. subtilis (ATCC 23857)) [µM] | MIC (E. coli (ATCC 25922)) [µM] | MIC [1] [µM] | MIC C. albicans (ATCC 36082) (C. albicans (ATCC 36082); ATCC 36082, 24 h) [µM] | pIC50 ([2]; 24 h) | pIC50 [3] | HC50 on Human Red Blood Cells (RBCs) [4] [µM] | HC50 on Human Red Blood Cells (RBCs) ([4]; red cells of human, 1 h) [µM] | pIC50 [5] | MIC S. aureus (NCTC 13277) (S. aureus (NCTC 13277)) [µM] | MIC S. typhi (ATCC 14028) (S. typhi (ATCC 14028); ATCC 14028) [µM] | MIC C. albicans (ATCC 36082) (C. albicans (ATCC 36082); [7]) [µM] | pIC50 [2, 8] | Antiparallel (%) [6] [%] | Helix (%) [6] [%] | Others (%) [6] [%] | Parallel (%) [6] [%] | Turn (%) [6] [%] | MIC S. typhi (ATCC 14028) (S. typhi (ATCC 14028); [9]) [µM]
CC[C@H](C)[C@H](NC(=O)[C@@H](NC(=O)CNC(=O)[C@H](CCSC)NC(=O)[C@H](CC(C)C)NC(=O)CNC(=O)[C@H](CCCCN)NC(=O)[C@H](CC(C)C)NC(=O)[C@@H](N)Cc1ccccc1)C(C)C)C(=O)N[C@H](C)C(=O)N[C@@H](CO)C(=O)N[C@@H](CC(C)C)C(=O)N[C@@H](Cc1ccccc1)C(=O)N[C@@H](CCCCNC(=O)c1cn2c3c(c(N4CCN(C)CC4)c(F)cc3c1=O)OC[C@@H]2C)C(N)=O [RLFP-1 (4), H-Phe^1-Leu^2-Lys^3-Gly^4-Leu^5-Met^6-Gly^7-Val^8-Ile^9-D-Ala^10-Ser^11-Leu^12-Phe^13-Lys^14(LF)-NH2] (H-FLKGLMGVI[dA]SLFK(Levofloxacinoyl)-NH2) | 50 (≈ 93.3 µg/mL) | >200 | >200 | >250 | < 4.00 | < 4.00 | 98.6 | 98.9 | < 4.00 | 50 (≈ 93.3 µg/mL) | 25 (≈ 46.7 µg/mL) | – | – | – | – | – | – | – | –
CC[C@H](C)[C@H](NC(=O)[C@@H](NC(=O)CNC(=O)[C@H](CCSC)NC(=O)[C@H](CC(C)C)NC(=O)CNC(=O)[C@H](CCCCN)NC(=O)[C@H](CC(C)C)NC(=O)[C@H](Cc1ccccc1)NC(=O)CCNC(=O)c1cn2c3c(c(N4CCN(C)CC4)c(F)cc3c1=O)OC[C@@H]2C)C(C)C)C(=O)N[C@H](C)C(=O)N[C@@H](CO)C(=O)N[C@@H](CC(C)C)C(=O)N[C@@H](Cc1ccccc1)C(=O)N[C@@H](CCCCN)C(N)=O [RLFP-3 (6), LF-β-Ala-Phe^1-Leu^2-Lys^3-Gly^4-Leu^5-Met^6-Gly^7-Val^8-Ile^9-D-Ala^10-Ser^11-Leu^12-Phe^13-Lys^14-NH2] ({Levofloxacinoyl-βAla}-FLKGLMGVI[dA]SLFK-NH2) | 1.56 (≈ 3.02 µg/mL) | 25 (≈ 48.4 µg/mL) | 12.5 (≈ 24.2 µg/mL) | – | 4.88 | 4.92 | – | 6.6 | – | 12.5 (≈ 24.2 µg/mL) | 3.12 (≈ 6.04 µg/mL) | 3.12 (≈ 6.04 µg/mL) | – | – | – | – | – | – | –
CC[C@H](C)[C@H](NC(=O)[C@@H](NC(=O)CNC(=O)[C@H](CCSC)NC(=O)[C@H](CC(C)C)NC(=O)[C@H](CCCCN)NC(=O)[C@H](CCCCN)NC(=O)[C@H](CC(C)C)NC(=O)[C@H](Cc1ccccc1)NC(=O)CCNC(=O)c1cn2c3c(c(N4CCN(C)CC4)c(F)cc3c1=O)OC[C@@H]2C)C(C)C)C(=O)N[C@H](C)C(=O)N[C@@H](CO)C(=O)N[C@@H](CC(C)C)C(=O)N[C@@H](Cc1ccccc1)C(N)=O [RLFP-4 (8), LF-β-Ala-Phe^1-Leu^2-Lys^3-Lys^4-Leu^5-Met^6-Gly^7-Val^8-Ile^9-D-Ala^10-Ser^11-Leu^12-Phe^13-NH2] ({Levofloxacinoyl-βAla}-FLKKLMGVI[dA]SLF-NH2) | 1.56 (≈ 2.93 µg/mL) | 25 (≈ 47 µg/mL) | 12.5 (≈ 23.5 µg/mL) | >200 | 4.62 | 4.81 | – | 4.5 | – | 6.25 (≈ 11.8 µg/mL) | 50 (≈ 94 µg/mL) | – | – | – | – | – | – | – | –
CC[C@H](C)[C@H](NC(=O)[C@@H](NC(=O)CNC(=O)[C@H](CCSC)NC(=O)[C@H](CC(C)C)NC(=O)CNC(=O)[C@H](CCCCN)NC(=O)[C@H](CC(C)C)NC(=O)[C@@H](N)Cc1ccccc1)C(C)C)C(=O)N[C@H](C)C(=O)N[C@@H](CO)C(=O)N[C@@H](CC(C)C)C(=O)N[C@@H](Cc1ccccc1)C(N)=O [RNST-2 (2), H-Phe^1-Leu^2-Lys^3-Gly^4-Leu^5-Met^6-Gly^7-Val^8-Ile^9-D-Ala^10-Ser^11-Leu^12-Phe^13-NH2] (H-FLKGLMGVI[dA]SLF-NH2) | 1.56 (≈ 2.18 µg/mL) | 50 (≈ 69.7 µg/mL) | 200 (≈ 279 µg/mL) | – | – | 4.22 | – | 13.8 | – | 3.12 (≈ 4.35 µg/mL) | – | 15.6 (≈ 21.8 µg/mL) | 4.28 | 17.9 | 62 | 0.00 | 20.1 | 0.00 | 50 (≈ 69.7 µg/mL)
CC[C@H](C)[C@H](NC(=O)[C@@H](NC(=O)CNC(=O)[C@H](CCSC)NC(=O)[C@H](CC(C)C)NC(=O)[C@H](CCCCN)NC(=O)[C@H](CCCCN)NC(=O)[C@H](CC(C)C)NC(=O)[C@@H](N)Cc1ccccc1)C(C)C)C(=O)N[C@H](C)C(=O)N[C@@H](CO)C(=O)N[C@@H](CC(C)C)C(=O)N[C@@H](Cc1ccccc1)C(N)=O [RSP-4 (7), H-Phe^1-Leu^2-Lys^3-Lys^4-Leu^5-Met^6-Gly^7-Val^8-Ile^9-D-Ala^10-Ser^11-Leu^12-Phe^13-NH2] (H-FLKKLMGVI[dA]SLF-NH2) | 12.5 (≈ 18.3 µg/mL) | 50 (≈ 73.3 µg/mL) | 200 (≈ 293 µg/mL) | 100 (≈ 147 µg/mL) | – | 4.24 | > 100 | – | – | 50 (≈ 73.3 µg/mL) | – | – | 4.40 | 22.1 | 56.8 | 13.6 | 0.00 | 7.6 | 100 (≈ 147 µg/mL)

Source: PMC11672801, “Synthesis of Temporin-SHa Retro Analogs with Lysine Addition/Substitution and Antibiotic Conjugation to Enhance Antibacterial, Antifungal, and Anticancer Activities” (Antibiotics, 2024)
